Structures are written as SMILES. Values joined by “and” are separate entries in the source; they are usually repeats but may differ in a detail not shown here. Equal values may be shown once.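 Five compound concentrations were applied to cells in 96-well plates for 48 hours; endpoints were derived by simple linear interpolation of the resulting dose-response curve. GI50 is the concentration that inhibits growth by half. TGI is the concentration that stops growth completely.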 A value given as a limit tells only on which side of the number the result lay.

Some test systems named below: CAKI-1 renal; EKVX NSCLC; K-562 leukemia; MALME-3M melanoma; MCF7 breast; MDA-MB-231 breast; OVCAR-8 ovarian; SF-268 CNS; SF-295 CNS; SK-MEL-28 melanoma.
Assay in all cases: NCI-60 cell line screen, 48 h

In the case of `Clc1ccc2c(c1)N(CCCN1CCCC1)c1ccccc1S2`, the GI50 was 11 µM with CAKI-1 renal; 8 µM with EKVX NSCLC; 2.77 µM in the experiment with K-562 leukemia; 3.98 µM with MALME-3M melanoma; 3.22 µM with MCF7 breast; 3.42 µM with MDA-MB-231 breast. Further, the GI50 was 9.64 µM with OVCAR-8 ovarian, 5.75 µM in the experiment on SF-268 CNS, 6.83 µM in the experiment on SF-295 CNS and 6.6 µM in the experiment with SK-MEL-28 melanoma. Moreover, the TGI with CAKI-1 renal stood at 22.9 µM; with EKVX NSCLC, 21.6 µM; with K-562 leukemia, 7.61 µM; in the experiment on MALME-3M melanoma it was 18.5 µM; with MCF7 breast, 13.6 µM; with MDA-MB-231 breast, 12.8 µM. Moreover, the TGI in the experiment on OVCAR-8 ovarian came out at 23.4 µM; with SF-268 CNS it was 20.7 µM; with SF-295 CNS, 21.6 µM; in the experiment with SK-MEL-28 melanoma it was 21.4 µM.

As to `CN(C)CCNC(=O)C(C)(C)Oc1ccc(C(=O)c2ccc(Cl)cc2)cc1Cl`, the TGI in the experiment on CAKI-1 renal was 26.2 µM; in the experiment with EKVX NSCLC, 23.9 µM; in the experiment on K-562 leukemia, 9.19 µM and > 39 µM; in the experiment on MALME-3M melanoma it was 11.1 µM; in the experiment with MCF7 breast it was 24.3 µM; in the experiment on MDA-MB-231 breast it was 4.93 µM and 23.6 µM. The TGI was 24.5 µM with OVCAR-8 ovarian; 28.7 µM with SF-268 CNS; 22.6 µM in the experiment with SF-295 CNS; 5.14 µM and 3.58 µM in the experiment with SK-MEL-28 melanoma. In addition, the GI50 was 2.42 µM with K-562 leukemia; 3.9 µM in the experiment on MALME-3M melanoma; 3.8 µM with MCF7 breast; 2.25 µM in the experiment on MDA-MB-231 breast; 4.74 µM in the experiment on SF-295 CNS; 2.63 µM in the experiment on SK-MEL-28 melanoma.

Turning to `N#Cc1ccccc1NC(=O)C(=O)c1c(O)c2ccccc2oc1=O`, the TGI with CAKI-1 renal, in the experiment on EKVX NSCLC, in the experiment with K-562 leukemia, with MALME-3M melanoma, in the experiment on MCF7 breast and in the experiment with MDA-MB-231 breast was above 100 µM each time. For the same molecule, the TGI in the experiment with OVCAR-8 ovarian, with SF-268 CNS, in the experiment with SF-295 CNS and in the experiment with SK-MEL-28 melanoma was above 100 µM in each case.

As to `COc1ccc2c(CN3CCC(C(=O)O)CC3)cc3cc4c(cc3c2c1)OCO4`, the GI50 in the experiment with CAKI-1 renal was 2.44 µM; in the experiment on EKVX NSCLC, 3.69 µM; in the experiment with K-562 leukemia it was 2.66 µM; in the experiment on MALME-3M melanoma, 1.58 µM; in the experiment with MCF7 breast, 3.1 µM; in the experiment on MDA-MB-231 breast it was 3.87 µM. Besides, the GI50 was 1.28 µM in the experiment on OVCAR-8 ovarian, 3.67 µM in the experiment with SF-268 CNS, 2.39 µM in the experiment on SF-295 CNS and 2.28 µM with SK-MEL-28 melanoma. For the same molecule, the TGI in the experiment on CAKI-1 renal worked out at 7.8 µM; in the experiment with EKVX NSCLC, 20.6 µM; in the experiment on K-562 leukemia it was 11.3 µM; with MALME-3M melanoma, 3.45 µM; with MCF7 breast it was 18.3 µM; with MDA-MB-231 breast, 30.7 µM. In addition, the TGI with OVCAR-8 ovarian came to 4.86 µM; in the experiment on SF-268 CNS, 25.4 µM; with SF-295 CNS it was 10.1 µM; in the experiment with SK-MEL-28 melanoma it was 6.02 µM.

Consider `Cl.Fc1c[c-]c(-c2ccccn2)c(F)c1.[Pt].c1ccc(P(c2ccccc2)C([PH+](c2ccccc2)c2ccccc2)[PH+](c2ccccc2)c2ccccc2)cc1`, for which the GI50 in the experiment with CAKI-1 renal is 2.19 µM; with EKVX NSCLC it was 3.1 µM; with K-562 leukemia it was 2.44 µM; with MALME-3M melanoma it was 2.5 µM; in the experiment on MCF7 breast, 2.95 µM; in the experiment with MDA-MB-231 breast it was 2.28 µM. Moreover, the GI50 was 2.83 µM in the experiment on OVCAR-8 ovarian, 3.22 µM in the experiment with SF-268 CNS, 3.46 µM with SF-295 CNS and 5.02 µM with SK-MEL-28 melanoma. Besides, the TGI in the experiment on CAKI-1 renal is 7.41 µM; with EKVX NSCLC, above 100 µM; in the experiment with K-562 leukemia, above 100 µM; in the experiment on MALME-3M melanoma it was 7.3 µM; in the experiment with MCF7 breast, above 100 µM; with MDA-MB-231 breast it was 7.06 µM. The TGI with OVCAR-8 ovarian turned out to be 38.5 µM; in the experiment with SF-268 CNS, 25.1 µM; with SF-295 CNS, 14.7 µM; with SK-MEL-28 melanoma, 26.9 µM.

With `C[C@H](Nc1ncnc2nc[nH]c12)c1cc2ccc(F)cc2nc1-c1ccccn1`, the GI50 in the experiment with CAKI-1 renal was 33.7 µM; in the experiment on EKVX NSCLC it was above 70.7 µM; with K-562 leukemia, above 100 µM; in the experiment with MALME-3M melanoma, above 87.8 µM; with MCF7 breast, 28.4 µM; with MDA-MB-231 breast it was above 80 µM. In addition, the GI50 in the experiment with OVCAR-8 ovarian is above 100 µM; in the experiment with SF-268 CNS it was above 100 µM; in the experiment on SF-295 CNS, 18.8 µM; in the experiment with SK-MEL-28 melanoma it was above 100 µM. Also, the TGI in the experiment with CAKI-1 renal, in the experiment with EKVX NSCLC, in the experiment on K-562 leukemia, with MALME-3M melanoma, with MCF7 breast and in the experiment with MDA-MB-231 breast was above 100 µM throughout. The TGI in the experiment on OVCAR-8 ovarian, in the experiment on SF-268 CNS, in the experiment with SF-295 CNS and in the experiment with SK-MEL-28 melanoma was above 100 µM in each case.

For `CCN1C(=O)N(CC)C2Nn3c(s/c(=C\c4ccccc4Br)c3=O)=NC21` (stereo unspecified), the GI50 in the experiment with CAKI-1 renal was 1.75 µM; in the experiment on EKVX NSCLC, 2.3 µM; in the experiment on K-562 leukemia it was 0.515 µM; in the experiment with MALME-3M melanoma, 8.08 µM; in the experiment with MCF7 breast, 1.78 µM; in the experiment with MDA-MB-231 breast, 1.89 µM. Further, the GI50 in the experiment on OVCAR-8 ovarian was 1.61 µM; in the experiment with SF-268 CNS it was 2.54 µM; with SF-295 CNS, 0.691 µM; in the experiment with SK-MEL-28 melanoma it was 2.23 µM. Also, the TGI in the experiment on CAKI-1 renal was 38.2 µM; in the experiment with EKVX NSCLC it was above 100 µM; with K-562 leukemia it was above 100 µM; in the experiment with MALME-3M melanoma it was 78.1 µM; in the experiment on MCF7 breast, above 100 µM; with MDA-MB-231 breast, 8.62 µM. The TGI with OVCAR-8 ovarian amounted to 7.85 µM; in the experiment with SF-268 CNS it was 29 µM; in the experiment with SF-295 CNS, 7.75 µM; in the experiment with SK-MEL-28 melanoma it was 69.6 µM.
